Measurements taken from ChEMBL document CHEMBL1955729, “N⁴-(3-Bromophenyl)-7-(substituted benzyl) pyrrolo[2,3-d]pyrimidines as potent multiple receptor tyrosine kinase inhibitors: design, synthesis, and in vivo evaluation” (Bioorg Med Chem, 2012).
Calls of active or inactive are those of the source. The rule behind the calls is not given here.

Key:
[1] = target: T1, Platelet-derived growth factor receptor beta (Homo sapiens, UniProt P09619)
[2] = target: T2, Vascular endothelial growth factor receptor 2 (Homo sapiens, UniProt P35968)
[3] = target: T3, Vascular endothelial growth factor receptor 1 (Homo sapiens, UniProt P17948)
[4] = target: T1, Platelet-derived growth factor receptor beta; experiment: Inhibition of PDGFBB-induced PDGFRbeta autophosphorylation in human SF539 cells incubated for 60 mins prior to PDGFBB-induction measured after 10 mins by phosphotyrosine ELISA; type: cell-based, SF-539
[5] = target: T2, Vascular endothelial growth factor receptor 2; remark: listed apart in the source
[6] = target: T3, Vascular endothelial growth factor receptor 1; remark: listed apart in the source
[7] = target: Epidermal growth factor receptor (Homo sapiens, UniProt P00533)
[8] = (§1) Toxicity in NCr nu/nu mouse assessed as body weight loss administered for 3 days per week measured after 6 weeks; type: organism-based; details: NCr nu/nu, in vivo
COLO 205 [9] = experiment: Antitumor activity against human COLO205 cells xenografted in athymic NIH-II mouse assessed as decrease in tumor growth rate at 35 mg/kg, ip administered 3 days per week relative to control; type: functional, organism-based; set-up: dose 35 mg/kg
COLO 205 [10] = experiment: Antiangiogenic activity in human COLO205 cells xenografted in athymic NIH-II mouse at 35 mg/kg, ip administered 3 days per week by hematoxylin and eosin staining relative to control; type: functional, organism-based; set-up: dose 35 mg/kg
COLO 205 [11] = experiment: Antimetastatic activity against human COLO205 cells xenografted in athymic NIH-II mouse at 35 mg/kg, ip administered for 3 days per week by hematoxylin and eosin staining; type: functional, organism-based; set-up: dose 35 mg/kg
Mus musculus = experiment: as §1; type: organism-based; details: in vivo, 1008 h
COLO 205 [12] = experiment: Antitumor activity against human COLO205 cells xenografted in athymic NIH-II mouse assessed as decrease in tumor growth rate at 10 mg/kg, ip administered 3 days per week relative to control; type: functional, organism-based; set-up: dose 10 mg/kg
COLO 205 [13] = experiment: Antiangiogenic activity in human COLO205 cells xenografted in athymic NIH-II mouse at 10 mg/kg, ip administered 3 days per week by hematoxylin and eosin staining relative to control; type: functional, organism-based; set-up: dose 10 mg/kg
COLO 205 [14] = experiment: Antimetastatic activity against human COLO205 cells xenografted in athymic NIH-II mouse at 10 mg/kg, ip administered for 3 days per week by hematoxylin and eosin staining; type: functional, organism-based; set-up: dose 10 mg/kg

Sequence of Epidermal growth factor receptor (P00533 whole entry): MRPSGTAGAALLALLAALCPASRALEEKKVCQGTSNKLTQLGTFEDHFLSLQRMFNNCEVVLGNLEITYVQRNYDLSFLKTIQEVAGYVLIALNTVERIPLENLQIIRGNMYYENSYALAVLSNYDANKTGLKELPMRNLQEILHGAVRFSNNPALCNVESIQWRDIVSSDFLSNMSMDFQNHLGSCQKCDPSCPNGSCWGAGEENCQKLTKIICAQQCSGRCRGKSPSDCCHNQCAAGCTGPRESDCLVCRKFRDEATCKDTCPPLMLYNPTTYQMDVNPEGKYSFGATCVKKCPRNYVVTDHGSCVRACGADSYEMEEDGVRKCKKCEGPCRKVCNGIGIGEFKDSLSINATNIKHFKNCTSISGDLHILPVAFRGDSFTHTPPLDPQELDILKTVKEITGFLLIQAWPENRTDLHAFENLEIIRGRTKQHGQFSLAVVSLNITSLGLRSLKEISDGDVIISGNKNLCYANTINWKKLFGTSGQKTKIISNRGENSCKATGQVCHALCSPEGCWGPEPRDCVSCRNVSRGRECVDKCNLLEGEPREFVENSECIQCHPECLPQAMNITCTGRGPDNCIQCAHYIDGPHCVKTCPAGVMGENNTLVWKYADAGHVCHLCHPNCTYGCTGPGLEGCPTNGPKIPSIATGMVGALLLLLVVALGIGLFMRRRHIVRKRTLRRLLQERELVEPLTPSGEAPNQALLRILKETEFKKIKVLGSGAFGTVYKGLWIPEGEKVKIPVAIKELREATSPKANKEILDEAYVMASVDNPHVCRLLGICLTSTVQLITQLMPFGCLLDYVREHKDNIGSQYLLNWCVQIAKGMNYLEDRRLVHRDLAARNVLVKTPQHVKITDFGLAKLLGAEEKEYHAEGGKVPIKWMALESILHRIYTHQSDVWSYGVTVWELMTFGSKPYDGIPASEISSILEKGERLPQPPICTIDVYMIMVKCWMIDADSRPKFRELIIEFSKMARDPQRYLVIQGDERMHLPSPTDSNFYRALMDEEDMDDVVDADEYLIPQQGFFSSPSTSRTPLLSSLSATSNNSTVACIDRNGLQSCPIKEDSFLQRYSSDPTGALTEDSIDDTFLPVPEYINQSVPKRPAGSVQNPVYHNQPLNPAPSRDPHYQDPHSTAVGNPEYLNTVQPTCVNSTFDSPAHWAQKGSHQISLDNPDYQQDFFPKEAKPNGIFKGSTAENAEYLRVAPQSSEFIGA
T3 sequence (P17948 whole entry): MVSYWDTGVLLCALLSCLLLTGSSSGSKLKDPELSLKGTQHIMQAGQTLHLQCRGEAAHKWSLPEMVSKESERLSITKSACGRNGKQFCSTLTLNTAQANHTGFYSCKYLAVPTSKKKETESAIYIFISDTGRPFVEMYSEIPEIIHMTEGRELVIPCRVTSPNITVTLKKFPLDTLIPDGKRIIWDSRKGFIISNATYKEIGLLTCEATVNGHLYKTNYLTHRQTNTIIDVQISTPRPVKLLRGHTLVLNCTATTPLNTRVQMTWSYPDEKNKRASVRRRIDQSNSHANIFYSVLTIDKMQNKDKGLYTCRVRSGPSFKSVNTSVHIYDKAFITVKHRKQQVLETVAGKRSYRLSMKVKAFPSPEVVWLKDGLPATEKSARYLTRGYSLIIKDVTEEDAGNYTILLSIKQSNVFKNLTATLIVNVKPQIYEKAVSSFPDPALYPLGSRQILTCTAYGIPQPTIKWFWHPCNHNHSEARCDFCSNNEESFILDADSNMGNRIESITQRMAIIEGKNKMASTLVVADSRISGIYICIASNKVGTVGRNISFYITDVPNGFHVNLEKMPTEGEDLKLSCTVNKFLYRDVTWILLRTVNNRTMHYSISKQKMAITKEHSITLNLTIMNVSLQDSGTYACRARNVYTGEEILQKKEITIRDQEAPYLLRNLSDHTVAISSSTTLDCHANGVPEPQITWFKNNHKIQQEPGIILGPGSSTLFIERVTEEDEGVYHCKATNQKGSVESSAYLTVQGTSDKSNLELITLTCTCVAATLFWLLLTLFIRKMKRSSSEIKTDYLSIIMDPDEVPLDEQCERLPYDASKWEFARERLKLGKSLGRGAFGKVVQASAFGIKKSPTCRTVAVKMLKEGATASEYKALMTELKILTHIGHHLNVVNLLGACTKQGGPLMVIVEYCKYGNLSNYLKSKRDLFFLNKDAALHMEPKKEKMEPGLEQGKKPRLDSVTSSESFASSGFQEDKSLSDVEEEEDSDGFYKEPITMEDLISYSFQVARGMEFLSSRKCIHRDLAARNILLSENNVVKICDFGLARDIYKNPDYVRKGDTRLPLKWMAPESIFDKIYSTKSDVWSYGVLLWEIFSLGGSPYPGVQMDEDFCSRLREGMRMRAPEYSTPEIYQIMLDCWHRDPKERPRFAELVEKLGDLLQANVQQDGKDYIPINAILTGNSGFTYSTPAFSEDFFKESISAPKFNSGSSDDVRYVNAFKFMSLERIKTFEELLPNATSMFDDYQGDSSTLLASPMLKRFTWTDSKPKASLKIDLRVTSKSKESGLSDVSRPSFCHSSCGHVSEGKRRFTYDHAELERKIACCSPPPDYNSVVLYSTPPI
T1 sequence (P09619 whole entry): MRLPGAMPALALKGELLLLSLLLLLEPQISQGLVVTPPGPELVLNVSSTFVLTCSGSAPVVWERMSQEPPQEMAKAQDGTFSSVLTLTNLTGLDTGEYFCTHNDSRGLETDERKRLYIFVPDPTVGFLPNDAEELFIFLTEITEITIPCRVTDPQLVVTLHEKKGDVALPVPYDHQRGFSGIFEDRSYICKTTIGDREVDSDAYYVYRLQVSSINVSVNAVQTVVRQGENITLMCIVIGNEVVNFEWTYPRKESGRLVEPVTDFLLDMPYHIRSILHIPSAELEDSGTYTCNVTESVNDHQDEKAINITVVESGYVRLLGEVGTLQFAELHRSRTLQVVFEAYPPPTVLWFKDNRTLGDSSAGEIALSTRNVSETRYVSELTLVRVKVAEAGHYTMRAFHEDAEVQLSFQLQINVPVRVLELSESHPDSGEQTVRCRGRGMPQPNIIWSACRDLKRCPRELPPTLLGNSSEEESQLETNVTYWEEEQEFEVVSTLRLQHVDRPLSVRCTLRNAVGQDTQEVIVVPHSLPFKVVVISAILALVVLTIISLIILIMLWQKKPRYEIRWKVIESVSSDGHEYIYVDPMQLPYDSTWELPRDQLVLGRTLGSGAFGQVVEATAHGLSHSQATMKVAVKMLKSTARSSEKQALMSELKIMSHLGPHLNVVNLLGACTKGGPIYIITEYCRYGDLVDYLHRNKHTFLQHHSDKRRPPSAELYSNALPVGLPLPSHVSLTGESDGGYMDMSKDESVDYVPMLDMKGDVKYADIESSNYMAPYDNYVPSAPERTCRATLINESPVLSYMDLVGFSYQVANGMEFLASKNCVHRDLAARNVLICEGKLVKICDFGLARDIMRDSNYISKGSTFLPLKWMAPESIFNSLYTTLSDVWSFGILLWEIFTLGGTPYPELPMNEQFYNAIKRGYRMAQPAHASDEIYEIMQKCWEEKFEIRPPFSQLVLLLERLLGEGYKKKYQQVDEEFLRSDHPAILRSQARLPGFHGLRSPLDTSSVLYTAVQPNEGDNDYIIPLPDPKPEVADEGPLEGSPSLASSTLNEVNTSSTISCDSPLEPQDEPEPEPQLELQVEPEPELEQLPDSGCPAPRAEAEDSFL
T2 sequence (P35968 whole entry): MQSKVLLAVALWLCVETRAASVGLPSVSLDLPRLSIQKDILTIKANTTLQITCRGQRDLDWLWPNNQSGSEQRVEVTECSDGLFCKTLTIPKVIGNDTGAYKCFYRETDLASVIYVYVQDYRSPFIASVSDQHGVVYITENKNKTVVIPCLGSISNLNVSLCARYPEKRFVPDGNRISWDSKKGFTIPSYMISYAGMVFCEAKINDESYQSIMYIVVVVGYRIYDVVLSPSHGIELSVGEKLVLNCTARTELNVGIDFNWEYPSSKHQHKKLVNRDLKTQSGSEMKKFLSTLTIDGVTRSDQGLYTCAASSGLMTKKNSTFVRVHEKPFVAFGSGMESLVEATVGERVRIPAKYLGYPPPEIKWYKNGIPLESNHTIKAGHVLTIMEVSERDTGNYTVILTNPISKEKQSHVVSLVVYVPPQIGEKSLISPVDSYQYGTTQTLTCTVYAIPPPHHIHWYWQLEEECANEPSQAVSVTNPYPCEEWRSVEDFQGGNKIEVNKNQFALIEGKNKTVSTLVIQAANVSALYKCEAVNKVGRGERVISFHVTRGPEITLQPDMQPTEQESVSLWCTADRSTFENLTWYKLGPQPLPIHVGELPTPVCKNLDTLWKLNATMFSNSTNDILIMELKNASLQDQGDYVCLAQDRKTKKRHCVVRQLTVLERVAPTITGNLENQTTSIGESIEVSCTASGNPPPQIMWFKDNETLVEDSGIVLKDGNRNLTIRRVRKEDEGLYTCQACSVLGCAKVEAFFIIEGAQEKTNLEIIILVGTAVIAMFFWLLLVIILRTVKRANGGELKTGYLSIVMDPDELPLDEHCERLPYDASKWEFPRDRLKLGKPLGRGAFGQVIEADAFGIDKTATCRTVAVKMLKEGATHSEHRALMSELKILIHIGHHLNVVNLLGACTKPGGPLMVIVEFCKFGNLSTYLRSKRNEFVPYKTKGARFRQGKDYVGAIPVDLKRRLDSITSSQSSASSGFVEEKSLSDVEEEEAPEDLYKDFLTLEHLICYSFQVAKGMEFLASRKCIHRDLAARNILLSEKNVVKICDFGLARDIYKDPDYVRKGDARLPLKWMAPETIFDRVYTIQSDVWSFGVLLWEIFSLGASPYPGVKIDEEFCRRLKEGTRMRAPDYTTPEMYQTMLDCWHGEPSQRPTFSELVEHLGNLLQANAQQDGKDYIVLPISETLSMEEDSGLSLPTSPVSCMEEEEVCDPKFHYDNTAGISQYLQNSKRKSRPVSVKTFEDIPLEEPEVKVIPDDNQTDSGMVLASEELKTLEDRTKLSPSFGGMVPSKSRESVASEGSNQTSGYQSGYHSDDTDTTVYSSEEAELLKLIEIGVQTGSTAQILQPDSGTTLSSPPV

Structure (SMILES)	IC50 [4] [µM]	IC50 [5] [µM]	IC50 [6] [µM]	IC50 [7] [µM]	also measured
Nc1nc(Nc2cccc(Br)c2)c2cc(Cc3ccc(Cl)cc3)[nH]c2n1					IC50 [1]: > 50 µM; IC50 [2]: 8.28 µM; IC50 [3]: 42.7 µM
Nc1nc(Nc2cccc(Br)c2)c2ccn(Cc3ccc(-c4ccccc4)cc3)c2n1	129	22.9	> 200	> 200	
Cc1ccccc1Cn1ccc2c(Nc3cccc(Br)c3)nc(N)nc21	160	113	129	113	
Nc1nc(Nc2cccc(Br)c2)c2ccn(Cc3ccc(Cl)cc3)c2n1	> 500	65.3	79.9	99.9	
Nc1nc(Nc2cccc(Br)c2)c2ccn(Cc3ccccc3)c2n1	> 500	23.8	99.3	166	
COc1ccc(OC)c(Cn2ccc3c(Nc4cccc(Br)c4)nc(N)nc32)c1		> 200	> 200	69.2	
Nc1nc(Nc2cccc(Br)c2)c2ccn(Cc3ccc(Cl)c(Cl)c3)c2n1	230	64.5	119	> 200	
Nc1nc(Nc2cccc(Br)c2)c2ccn(Cc3ccccc3Cl)c2n1	1.5	17.9	126	> 200	MTD at 1008 h [8]: 35 mg/kg; TGI (COLO 205 [9]): Active; Activity (COLO 205 [10]): Active; Activity (COLO 205 [11]): Active
Nc1nc(Nc2cccc(Br)c2)c2ccn(Cc3ccc(Cl)cc3Cl)c2n1	34.2	> 200	138	> 200	
Cc1[nH]c(/C=C2\C(=O)Nc3ccccc32)c(C)c1CCC(=O)O [ORANTINIB]					MTD (Mus musculus): 10 mg/kg; TGI (COLO 205 [12]): Active; Activity (COLO 205 [13]): Active; Activity (COLO 205 [14]): inactive
Nc1nc(Nc2cccc(Br)c2)c2ccn(Cc3ccc4ccccc4c3)c2n1	212	22.9	50.8	> 200	
Nc1nc(Nc2cccc(Br)c2)c2ccn(Cc3cccc4ccccc34)c2n1	129	14.9	150	> 200	
COc1cc(Cn2ccc3c(Nc4cccc(Br)c4)nc(N)nc32)cc(OC)c1OC	1.8	25.7	156	> 200	
Nc1nc(Nc2cccc(Br)c2)c2cc(Cc3ccc(Cl)c(Cl)c3)[nH]c2n1					IC50 [1]: > 50 µM
